The test deals with BDF1 mice, colon carcinoma 38 sc, T/C %. Kind of test: NCI In Vivo Anticancer Drug Screen. Data for tumor model Colon Carcinoma 38 (subcutaneous) in B6D2F1 (BDF1) mice. As to conditions: endpoint: median tumor weight (est.), higher = larger tumour. The essentials:
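Compound antitumor activity was assessed in mice carrying transplantable tumors. Survival or tumor size was recorded, and each value is the treated-group measurement divided by that of the vehicle-treated control group.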

The mark [1] stands for this setting: dose: 50.0 mg/kg/injection, schedule: Q07DX002 (ip), vehicle: Klucel (hydroxypropylcellulose) (HPC).
Setting [2] is: dose: 100.0 mg/kg/injection, schedule: Q07DX002 (ip), vehicle: Klucel (hydroxypropylcellulose) (HPC).
[3] abbreviates: dose: 200.0 mg/kg/injection, schedule: Q07DX002 (ip), vehicle: Klucel (hydroxypropylcellulose) (HPC).
Setting [4] is: dose: 400.0 mg/kg/injection, schedule: Q07DX002 (ip), vehicle: Klucel (hydroxypropylcellulose) (HPC).
Where [5] appears, read: dose: 800.0 mg/kg/injection, schedule: Q07DX002 (ip), vehicle: Klucel (hydroxypropylcellulose) (HPC).
Setting [6] is: dose: 25.0 mg/kg/injection, schedule: Q07DX002 (ip), vehicle: saline with Tween-80.
Where [7] appears, read: dose: 50.0 mg/kg/injection, schedule: Q07DX002 (ip), vehicle: saline with Tween-80.
Where [8] appears, read: dose: 100.0 mg/kg/injection, schedule: Q07DX002 (ip), vehicle: saline with Tween-80.
Where [9] appears, read: dose: 200.0 mg/kg/injection, schedule: Q07DX002 (ip), vehicle: saline with Tween-80.
Where [10] appears, read: dose: 400.0 mg/kg/injection, schedule: Q07DX002 (ip), vehicle: saline with Tween-80.
The mark [11] stands for this setting: dose: 12.5 mg/kg/injection, schedule: Q07DX002 (ip), vehicle: saline with Tween-80.
The mark [12] stands for this setting: dose: 25.0 mg/kg/injection, schedule: Q07DX002 (ip), vehicle: Klucel (hydroxypropylcellulose) (HPC).

SMILES strings stand for the structures. Several values for one entry are separate records, joined by “and”; a condition that tells them apart may be missing. Equal values may be shown once. Records with an inconclusive call do not appear.

As for `Cc1c(-c2ccc(C3CCCCC3)cc2)nc2ccc(F)cc2c1C(=O)O`, the T/C was 89 % of control under setting [1]; 80 % of control under setting [2]; 116 % of control under setting [3]; 86 % of control under setting [4]; 120 % of control (dose: 400.0 mg/kg/injection, schedule: Q07DX002 (ip), vehicle: Klucel + Tween-80); 107 % of control under setting [5]. Further, the T/C (dose: 800.0 mg/kg/injection, schedule: Q07DX002 (ip), vehicle: Klucel + Tween-80) was 80 % of control.
Turning to `CC1=CC2C(O)(CC(CO)=CC3C4C(C)(C)C4(OC(=O)c4ccccc4)C(OC(=O)c4ccccc4)C(C)C32O)C1=O` (centres undefined), the T/C was 156 % of control (dose: 0.5 mg/kg/injection, schedule: Q07DX002 (ip), vehicle: saline with Tween-80) and 167 % of control (dose: 2.0 mg/kg/injection, schedule: Q07DX002 (ip), vehicle: saline with Tween-80).
As for `CCCCCCCCCCCCCCCCCCCCCC(=O)Nc1ccn(C2OC(CO)C(O)C2O)c(=O)n1` (centres undefined), the T/C by setting is: (dose: 12.5 mg/kg/injection, schedule: Q07DX002 (ip), vehicle: saline) 80 % of control; under setting [6], 151 % of control; (dose: 25.0 mg/kg/injection, schedule: Q07DX002 (ip), vehicle: saline) 119 % of control and 105 % of control; under setting [7], 172 % of control; under setting [8], 82 % of control; (dose: 100.0 mg/kg/injection, schedule: Q07DX002 (ip), vehicle: saline) 52 % of control and 65 % of control. The T/C is, setting by setting: under setting [9], 92 % of control; (dose: 200.0 mg/kg/injection, schedule: Q07DX002 (ip), vehicle: saline) 52 % of control; under setting [10], 10 % of control; (dose: 400.0 mg/kg/injection, schedule: Q07DX002 (ip), vehicle: saline) 29 % of control.
`CCOC(=O)c1ccc(NC(=O)Nc2nncs2)cc1`: the T/C was 194 % of control (dose: 12.5 mg/kg/injection, schedule: Q07DX002 (ip), vehicle: distilled water + Tween-80); 90 % of control (dose: 25.0 mg/kg/injection, schedule: Q07DX002 (ip), vehicle: distilled water + Tween-80); 94 % of control (dose: 50.0 mg/kg/injection, schedule: Q07DX002 (ip), vehicle: distilled water + Tween-80).
In the case of `c1ccc2sc(SSN3CC4CCC(CC4)C3)nc2c1`, the T/C was 110 % of control and 85 % of control under setting [11]; 82 % of control and 93 % of control under setting [6]; 63 % of control and 64 % of control under setting [8]; 113 % of control and 115 % of control under setting [9].
For `Cc1ccc(S(=O)(=O)N/N=C/C(Br)=C(/Br)C(=O)O)cc1`, the T/C runs as follows: under setting [12], 94 % of control; under setting [2], 124 % of control and 100 % of control; under setting [3], 88 % of control; under setting [4], 72 % of control.
Turning to `N#CCCN(C(=S)Nc1cccc(C(F)(F)F)c1)C1CCCCC1`, the T/C reads like this: under setting [1], 67 % of control and 71 % of control; under setting [3], 76 % of control and 80 % of control and 88 % of control; under setting [5], 79 % of control and 92 % of control.
As to `COc1cc([C@@H]2c3cc4c(cc3[C@@H](OC3OC5CO[C@@H](c6cccs6)OC5C(O)C3O)[C@H]3COC(=O)[C@H]23)OCO4)cc(OC)c1O` (some centres undefined), the T/C (dose: 1.0 mg/kg/injection, schedule: Q07DX002 (ip), vehicle: suspension in saline) is 88 % of control; the T/C (dose: 2.0 mg/kg/injection, schedule: Q07DX002 (ip), vehicle: suspension in saline) was 113 % of control and 100 % of control; the T/C (dose: 4.0 mg/kg/injection, schedule: Q07DX002 (ip), vehicle: suspension in saline) is 63 % of control and 75 % of control.
Turning to `NS(=O)(=O)OCCCCCCCOS(N)(=O)=O`, the T/C under setting [6] is 124 % of control; the T/C under setting [9] was 9 % of control and 16 % of control.
Regarding `CN=C(N)N/N=C(\c1ccccc1)c1ccc(Br)cc1`, the T/C (dose: 3.0 mg/kg/injection, schedule: Q07DX002 (ip), vehicle: saline with Tween-80) is 152 % of control; the T/C (dose: 6.25 mg/kg/injection, schedule: Q07DX002 (ip), vehicle: saline with Tween-80) is 169 % of control; the T/C under setting [11] is 156 % of control; the T/C under setting [7] is 96 % of control.
For the compound `CCC1=C[C@H]2CN(CCc3c([nH]c4ccccc34)[C@@](C(=O)OC)(c3cc4c(cc3OC)N(C)[C@H]3[C@@](O)(C(=O)OC)[C@H](OC(C)=O)[C@]5(CC)C=CCN6CC[C@]43[C@@H]65)C2)C1`, the T/C (dose: 4.0 mg/kg/injection, schedule: Q07DX002 (ip), vehicle: water) was 75 % of control and 82 % of control.
For `COC1=CC(=O)N(C(=O)C2CSC(C(CO)NC(=O)c3csc(/C=N/O)n3)=N2)C1` (centres undefined), the T/C is 114 % of control under setting [1], 110 % of control under setting [2], 150 % of control under setting [3] and 88 % of control under setting [4].
For `O=C1OCC2C(=O)OCC12` (centres undefined), the T/C is 103 % of control under setting [6], 46 % of control under setting [8], 120 % of control under setting [9] and 69 % of control under setting [10].
In the case of `C[N+](C)(C)c1cc2c(nn1)Nc1ccccc1S2`, the T/C is 109 % of control (dose: 6.25 mg/kg/injection, schedule: Q07DX002 (ip), vehicle: Klucel (hydroxypropylcellulose) (HPC)); 122 % of control (dose: 12.5 mg/kg/injection, schedule: Q07DX002 (ip), vehicle: Klucel (hydroxypropylcellulose) (HPC)); 89 % of control and 90 % of control under setting [12]; 97 % of control under setting [1]; 89 % of control under setting [2].
As to `CCCCCCCCCCCCCCCCS(=O)CC(O)COC(=O)c1ccc(C(=O)OCC(O)CS(=O)CCCCCCCCCCCCCCCC)cc1` (centres undefined), the T/C reads like this: (dose: 12.5 mg/kg/injection, schedule: Q07DX002 (ip), vehicle: saline + alcohol) 111 % of control; (dose: 25.0 mg/kg/injection, schedule: Q07DX002 (ip), vehicle: saline + alcohol) 98 % of control; (dose: 50.0 mg/kg/injection, schedule: Q07DX002 (ip), vehicle: saline + alcohol) 98 % of control; (dose: 100.0 mg/kg/injection, schedule: Q07DX002 (ip), vehicle: saline + alcohol) 117 % of control; (dose: 200.0 mg/kg/injection, schedule: Q07DX002 (ip), vehicle: saline + alcohol) 76 % of control; (dose: 400.0 mg/kg/injection, schedule: Q07DX002 (ip), vehicle: saline + alcohol) 104 % of control.
Consider `CC1(C)OCC(CO)(Nc2nc(N3CC3)nc(N3CC3)n2)CO1`, for which the T/C is 72 % of control (dose: 1.25 mg/kg/injection, schedule: Q07DX002 (ip), vehicle: saline); 166 % of control (dose: 1.25 mg/kg/injection, schedule: Q07DX003 (ip), vehicle: saline); 75 % of control (dose: 2.5 mg/kg/injection, schedule: Q07DX002 (ip), vehicle: saline); 111 % of control (dose: 2.5 mg/kg/injection, schedule: Q07DX003 (ip), vehicle: saline); 65 % of control (dose: 5.0 mg/kg/injection, schedule: Q07DX002 (ip), vehicle: saline); 49 % of control (dose: 5.0 mg/kg/injection, schedule: Q07DX003 (ip), vehicle: saline). Further, the T/C (dose: 10.0 mg/kg/injection, schedule: Q07DX002 (ip), vehicle: saline) is 15 % of control.
Take `COC1/C=C/O[C@@]2(C)Oc3c(C)c(O)c4c(O)c(cc(O)c4c3C2=O)NC(=O)/C(C)=C\C=C\[C@H](C)C(O)[C@@H](C)[C@@H](O)[C@@H](C)[C@H](OC(C)=O)[C@@H]1C` (some centres undefined): the T/C under setting [11] was 72 % of control; the T/C under setting [7] is 79 % of control; the T/C under setting [8] is 84 % of control; the T/C under setting [9] was 77 % of control; the T/C under setting [10] was 98 % of control.

(Values after PubChem BioAssay AID212 (DTP/NCI, 2004).)
